± gives the standard deviation of the averaged measurements.
Each test system was assayed with CCN(CC)CCNC(=O)c1c(C)[nH]c(/C=C2\C(=O)Nc3ccc(F)cc32)c1C [SUNITINIB] (assay: surviving fraction relative to DMSO-only wells; higher = less growth inhibition). Settings: 50 nM; exposure time: 5 days.
In short: (§1)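 Log-phase tumour cell lines were seeded at 250–500 cells per well in 384-well plates. After 24 hours they were exposed continuously for five days to inhibitors at 0.5, 1, 5, 10, 50, 100, 500 and 1000 nM. Viability was read by CellTiter-Glo luminescence after 10 minutes at room temperature, and surviving fraction is luminescence normalised to the median of DMSO-only wells. Each line was screened three times and kept only if replicate Pearson r >0.7 and median Z' >0.3.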

Row | Test System | surviving fraction
1 | CASKI CERVIX | 0.891 ± 0.088
2 | COLO320DM LARGE INTESTINE | 0.929 ± 0.057
3 | DU4475 BREAST | 0.668 ± 0.12
4 | HCC38 BREAST | 1.16 ± 0.1
5 | HCC78 LUNG | 1.24 ± 0.33
6 | HCC202 BREAST | 1.26 ± 0.17
7 | HCC1806 BREAST | 1 ± 0.091
8 | HCC1954 BREAST | 0.5 ± 0.045
9 | HCT15 LARGE INTESTINE | 0.952 ± 0.049
10 | HELA CERVIX | 0.995 ± 0.044
11 | HMLE3 BREAST | 0.867 ± 0.064
12 | HOS BONE | 0.954 ± 0.01
13 | HOSMNG BONE | 1.06 ± 0.12
14 | HU09 BONE | 0.498 ± 0.051
15 | JIMT1 BREAST | 1.05 ± 0.056
16 | JURKAT HAEMATOPOIETIC AND LYMPHOID TISSUE | 1.01 ± 0.026
17 | KPD BONE | 0.9567 ± 0.007
18 | LM7 BONE | 0.93 ± 0.039
19 | MDAMB134 BREAST | 0.887 ± 0.067
20 | MDAMB157 BREAST | 0.83 ± 0.032
21 | MDAMB231 BREAST | 1.09 ± 0.017
22 | MDAMB361 BREAST | 0.82 ± 0.069
23 | MDAMB436 BREAST | 0.85 ± 0.087

Same assay, conditions: 100 nM; exposure time: 5 days

Row | Test System | surviving fraction
24 | 22RV1 PROSTATE | 0.932 ± 0.027
25 | 93VU HEADNECK | 0.93 ± 0.057
26 | 143B BONE | 1.008 ± 0.0042
27 | ASKA SYNOVIAL | 0.659 ± 0.04
28 | BT20 BREAST | 1.23 ± 0.23
29 | BT549 BREAST | 1.12 ± 0.16
30 | CADOES1 SOFT TISSUE | 1.03 ± 0.032
31 | CAL51 BREAST | 1.01 ± 0.035
32 | CAL120 BREAST | 0.891 ± 0.038
33 | CASKI CERVIX | 0.717 ± 0.039
34 | CHLA90 AUTONOMIC GANGLIA | 0.776 ± 0.047
35 | CME SYNOVIAL | 0.82 ± 0.032
36 | COLO320DM LARGE INTESTINE | 0.871 ± 0.075
37 | DU4475 BREAST | 0.649 ± 0.21
38 | H23 LUNG | 0.829 ± 0.014
39 | HCC38 BREAST | 1.18 ± 0.11
40 | HCC78 LUNG | 1.34 ± 0.44
41 | HCC1806 BREAST | 0.978 ± 0.11

Row | Test System | surviving fraction
42 | HCC1954 BREAST | 0.555 ± 0.052
43 | HELA CERVIX | 0.948 ± 0.052
44 | HMLE3 BREAST | 0.832 ± 0.061
45 | HMT3552 BREAST | 1.21
46 | HOS BONE | 0.9297 ± 0.009
47 | HOSMNG BONE | 0.999 ± 0.18
48 | HS57T BREAST | 0.863 ± 0.011
49 | HSSYII SYNOVIAL | 0.765 ± 0.045
50 | HT1080 SOFT TISSUE | 1.1 ± 0.031
51 | HU09 BONE | 0.485 ± 0.073
52 | JIMT1 BREAST | 1.04 ± 0.075
53 | JURKAT HAEMATOPOIETIC AND LYMPHOID TISSUE | 1.04 ± 0.012
54 | KPD BONE | 0.972 ± 0.022
55 | LM7 BONE | 0.794 ± 0.016
56 | MCF7 BREAST | 0.842 ± 0.015
57 | MDAMB157 BREAST | 0.74 ± 0.072
58 | MDAMB231 BREAST | 1.12 ± 0.017
59 | MDAMB436 BREAST | 0.913 ± 0.071

Same assay, conditions: 500 nM; exposure time: 5 days

Row | Test System | surviving fraction
60 | 22RV1 PROSTATE | 0.739 ± 0.049
61 | 93VU HEADNECK | 0.261 ± 0.026
62 | 143B BONE | 0.824 ± 0.067
63 | A549 LUNG | 1.04 ± 0.014
64 | ASKA SYNOVIAL | 0.441 ± 0.034
65 | BT20 BREAST | 1.31 ± 0.2
66 | BT549 BREAST | 1.19 ± 0.11
67 | CAL51 BREAST | 0.52 ± 0.031
68 | CAL120 BREAST | 0.64 ± 0.039
69 | CASKI CERVIX | 0.166 ± 0.0025
70 | CHLA90 AUTONOMIC GANGLIA | 0.779 ± 0.015
71 | CME SYNOVIAL | 0.767 ± 0.1
72 | COLO320DM LARGE INTESTINE | 0.324 ± 0.026
73 | DU4475 BREAST | 0.428 ± 0.18
74 | H23 LUNG | 0.598 ± 0.06
75 | HCC38 BREAST | 1.04 ± 0.22
76 | HCC70 BREAST | 1.15 ± 0.11
77 | HCC78 LUNG | 1.67 ± 0.23
78 | HCC202 BREAST | 0.714 ± 0.15
79 | HCC1806 BREAST | 0.677 ± 0.039
80 | HCC1954 BREAST | 0.616 ± 0.092

Row | Test System | surviving fraction
81 | HCT15 LARGE INTESTINE | 0.855 ± 0.08
82 | HELA CERVIX | 1.03 ± 0.035
83 | HMLE3 BREAST | 0.498 ± 0.018
84 | HMT3552 BREAST | 0.423
85 | HOS BONE | 0.786 ± 0.017
86 | HOSMNG BONE | 0.803 ± 0.072
87 | HS57T BREAST | 0.572 ± 0.035
88 | HS578T BREAST | 0.871 ± 0.073
89 | HSSYII SYNOVIAL | 0.418 ± 0.02
90 | HT1080 SOFT TISSUE | 0.766 ± 0.032
91 | HU09 BONE | 0.288 ± 0.035
92 | JIMT1 BREAST | 0.776 ± 0.098
93 | JURKAT HAEMATOPOIETIC AND LYMPHOID TISSUE | 0.677 ± 0.012
94 | KPD BONE | 0.73 ± 0.031
95 | LM7 BONE | 0.342 ± 0.009
96 | MCF7 BREAST | 0.751 ± 0.012
97 | MDAMB134 BREAST | 1.05 ± 0.22
98 | MDAMB157 BREAST | 0.613 ± 0.064
99 | MDAMB231 BREAST | 1.04 ± 0.0064
100 | MDAMB361 BREAST | 0.8 ± 0.011
101 | MDAMB436 BREAST | 0.718 ± 0.061

Same assay, conditions: 1000 nM; exposure time: 5 days

Row | Test System | surviving fraction
102 | 22RV1 PROSTATE | 0.41 ± 0.029
103 | 93VU HEADNECK | 0.158 ± 0.025
104 | 143B BONE | 0.461 ± 0.055
105 | A549 LUNG | 1.03 ± 0.02
106 | ASKA SYNOVIAL | 0.104 ± 0.0093
107 | BT20 BREAST | 1.21 ± 0.16
108 | BT549 BREAST | 0.785 ± 0.069
109 | CADOES1 SOFT TISSUE | 0.609 ± 0.11
110 | CAL51 BREAST | 0.202 ± 0.031
111 | CAL120 BREAST | 0.386 ± 0.037
112 | CASKI CERVIX | 0.0627 ± 0.004
113 | CHLA90 AUTONOMIC GANGLIA | 0.201 ± 0.02
114 | CME SYNOVIAL | 0.0447 ± 0.0074
115 | COLO320DM LARGE INTESTINE | 0.115 ± 0.011
116 | DU4475 BREAST | 0.1 ± 0.029
117 | H23 LUNG | 0.368 ± 0.021
118 | HCC38 BREAST | 0.76 ± 0.21
119 | HCC78 LUNG | 0.633 ± 0.1
120 | HCC202 BREAST | 0.639 ± 0.06
121 | HCC1806 BREAST | 0.397 ± 0.044
122 | HCC1954 BREAST | 0.65 ± 0.0088

Row | Test System | surviving fraction
123 | HCT15 LARGE INTESTINE | 0.119 ± 0.015
124 | HELA CERVIX | 0.745 ± 0.05
125 | HMLE3 BREAST | 0.108 ± 0.0078
126 | HMT3552 BREAST | 0.203
127 | HOS BONE | 0.471 ± 0.0095
128 | HOSMNG BONE | 0.44 ± 0.037
129 | HS57T BREAST | 0.406 ± 0.027
130 | HS578T BREAST | 0.426 ± 0.054
131 | HSSYII SYNOVIAL | 0.114 ± 0.0013
132 | HT1080 SOFT TISSUE | 0.559 ± 0.032
133 | HU09 BONE | 0.161 ± 0.011
134 | JIMT1 BREAST | 0.54 ± 0.063
135 | JURKAT HAEMATOPOIETIC AND LYMPHOID TISSUE | 0.0883 ± 0.0087
136 | KPD BONE | 0.441 ± 0.046
137 | LM7 BONE | 0.177 ± 0.018
138 | MCF7 BREAST | 0.607 ± 0.015
139 | MDAMB157 BREAST | 0.404 ± 0.062
140 | MDAMB231 BREAST | 0.848 ± 0.011
141 | MDAMB361 BREAST | 0.527 ± 0.054
142 | MDAMB436 BREAST | 0.596 ± 0.023

The test systems below were run with Cc1nc(Nc2n[nH]c3c2CN(C(=O)N[C@H](CN(C)C)c2ccccc2)C3(C)C)c2sccc2n1 in the same assay as above. Settings: 0.5 nM; exposure time: 5 days.
In short: as §1

Row | Test System | surviving fraction
143 | 22RV1 PROSTATE | 0.963 ± 0.14
144 | 93VU HEADNECK | 1.01 ± 0.12
145 | 143B BONE | 0.96 ± 0.021
146 | A549 LUNG | 1.03 ± 0.051
147 | ASKA SYNOVIAL | 0.673 ± 0.043
148 | BT20 BREAST | 1.21 ± 0.12
149 | BT549 BREAST | 1.02 ± 0.065
150 | CADOES1 SOFT TISSUE | 0.919 ± 0.029
151 | CAL51 BREAST | 0.898 ± 0.011
152 | CAL120 BREAST | 0.904 ± 0.0095
153 | CASKI CERVIX | 0.713 ± 0.037
154 | CHLA90 AUTONOMIC GANGLIA | 0.916 ± 0.055
155 | CME SYNOVIAL | 0.982 ± 0.12
156 | COLO320DM LARGE INTESTINE | 1.1 ± 0.089
157 | DU4475 BREAST | 0.654 ± 0.12
158 | H23 LUNG | 0.989 ± 0.029
159 | HCC38 BREAST | 1.03 ± 0.25
160 | HCC70 BREAST | 0.996 ± 0.059
161 | HCC78 LUNG | 0.721 ± 0.087
162 | HCC202 BREAST | 1.27 ± 0.26
